Laboratory results published in patent publication US20250009819A1, “NOVEL PROBIOTICS AND USE THEREOF” (PBLBIOLAB CO., LTD., priority 2021, published 2025).

Tests used:
[1] = tested on: IL-10; experiment: IL-10 expression in LPS-treated macrophages (ELISA); format: cell-based, C57BL/6 mice; details: macrophages treated with lactic acid bacteria and LPS for 24 hours
Method in brief: (§1)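 Peritoneal macrophages were elicited in male C57BL/6 mice (6 weeks) by i.p. 4% thioglycolate and harvested 96 h later. Cells at 0.5×10^6/well were treated with lactic acid bacteria plus LPS for 24 h. Cytokines in the supernatant were quantified by ELISA.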

[2] = tested on: Neuropeptide Y (NPY); experiment: Neuropeptide Y (NPY) expression in PC12 phaeochromocytoma cells; format: cell-based; details: LPS 200 ng/ml; lactic acid bacteria 1×10^4 CFU/ml; 24 hr
Description: PC12 cells obtained from the Korean Cell Line Bank were cultured in DMEM medium supplemented with 10% FBS and 1% antibiotics, and dispensed at 1×10^6 cells per well in a 12-well plate. Then, LPS (200 ng/ml) was added to each well along with lactic acid bacteria (1×10^4 CFU/ml) and incubated for 24 hr. The cells and supernatants were collected, sonicated and centrifuged, and the amount of NPY in the supernatant was measured by ELISA kit.

[3] = tested on: TNF-α; experiment: TNF-α expression in LPS-treated macrophages (ELISA); format: cell-based, C57BL/6 mice; details: macrophages treated with lactic acid bacteria and LPS for 24 hours
Method in brief: as §1

[4] = tested on: Clostridium difficile; experiment: Clostridium difficile proliferation in gut microbiota (PCR); format: cell-based; details: human feces culture; lactic acid bacteria 1×10^6 CFU/mL; anaerobic 24 hr
Method in brief: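 Human fecal supernatant, diluted 10,000-fold in GAM, co-cultured anaerobically 24 h with lactic acid bacteria (1×10^6 CFU/mL). C. difficile quantified by PCR on pellet DNA (95 °C 30 s; 42 cycles 95 °C 5 s/72 °C 30 s); supernatant LPS measured by ELISA.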

[5] = tested on: gut microbiota; experiment: LPS production in gut microbiota (ELISA); format: cell-based; details: human feces culture; lactic acid bacteria 1×10^6 CFU/mL; anaerobic 24 hr
Description: Fresh human feces were suspended in anaerobic medium (GAM, Nissui Pharmaceutical Co., Ltd., Japan) and allowed to stand for 10 min. The supernatant was diluted with 10,000-fold anaerobic medium, 0.05 mL of the dilution was transplanted into 5 mL of freshly made anaerobic medium, and lactic acid bacteria (1×10^6 CFU/mL) were implanted and incubated anaerobically for 24 hr.

[6] = tested on: BDNF; experiment: BDNF expression in SH-SY5Y cells; format: cell-based; details: LPS 200 ng/ml; lactic acid bacteria 1×10^4 CFU/ml; 24 h
Description: SH-SY5Y cells obtained from the Korean Cell Line Bank were cultured in DMEM medium supplemented with 10% FBS and 1% antibiotics, and dispensed at 2×10^6 cells per well in a 12-well plate. Then, LPS (200 ng/ml) was added to each well along with lactic acid bacteria (1×10^4 CFU/ml) and incubated for 24 h. The cells and supernatants were collected, sonicated and centrifuged, and the amount of BDNF in the supernatant was measured by ELISA kit.

[7] = Antioxidant activity (DPPH, in vitro); format: biochemical; details: DPPH 0.2 mM; lactic acid bacteria suspension 1×10^8 CFU/ml; 37° C. 20 min
Method in brief: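 Lactic acid bacteria suspension (1×10^8 CFU/ml) or vitamin C (1 g/ml) was mixed with 0.2 mM ethanolic DPPH and incubated 20 min at 37° C. After centrifugation, supernatant absorbance at 517 nm gave the antioxidant activity.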

Substance	Macrophage Induction of IL-10 expression [1]	PC12 cell Induction of NPY expression [2]	Macrophage Inhibition of TNF-α expression [3]	Gut microbiota Inhibition of difficile bacteria proliferation [4]	Gut microbiota Inhibition of LPS production [5]	SHSY5Y cell Induction of BDNF expression [6]	Antioxidant activity [7]
Lactobacillus plantarum NK183	− (not or less than 20% (−; <20%))	− (not or less than 20% (−; <20%))	+ (weakly (+; >20-60%))	+ (weakly (+; >20-60%))	+ (weakly (+; >20-60%))	− (not or less than 20% (−; <20%))	+ (weakly (+; >20-60%))
Lactobacillus plantarum NK184	+ (weakly (+; >20-60%))	− (not or less than 20% (−; <20%))	+ (weakly (+; >20-60%))	+ (weakly (+; >20-60%))	+ (weakly (+; >20-60%))	− (not or less than 20% (−; <20%))	++ (strongly (++; >60-90%))
Lactobacillus reuteri NK200	− (not or less than 20% (−; <20%))	+ (weakly (+; >20-60%))	− (not or less than 20% (−; <20%))	+ (weakly (+; >20-60%))	+ (weakly (+; >20-60%))	+ (weakly (+; >20-60%))	+ (weakly (+; >20-60%))
Lactobacillus reuteri NK201	+ (weakly (+; >20-60%))	+ (weakly (+; >20-60%))	+ (weakly (+; >20-60%))	+ (weakly (+; >20-60%))	+ (weakly (+; >20-60%))	+ (weakly (+; >20-60%))	+ (weakly (+; >20-60%))
Lactobacillus rhamnosus NK211	+ (weakly (+; >20-60%))	− (not or less than 20% (−; <20%))	+ (weakly (+; >20-60%))	+ (weakly (+; >20-60%))	− (not or less than 20% (−; <20%))	− (not or less than 20% (−; <20%))	+ (weakly (+; >20-60%))
Lactobacillus rhamnosus NK212	− (not or less than 20% (−; <20%))	− (not or less than 20% (−; <20%))	− (not or less than 20% (−; <20%))	− (not or less than 20% (−; <20%))	+ (weakly (+; >20-60%))	− (not or less than 20% (−; <20%))	++ (strongly (++; >60-90%))
Lactobacillus sakei NK197	+ (weakly (+; >20-60%))	+ (weakly (+; >20-60%))	+ (weakly (+; >20-60%))	+ (weakly (+; >20-60%))	+ (weakly (+; >20-60%))	− (not or less than 20% (−; <20%))	++ (strongly (++; >60-90%))
